Source: ChEMBL document CHEMBL5131399, “Broadening antifungal spectrum and improving metabolic stablity based on a scaffold strategy: Design, synthesis, and evaluation of novel 4-phenyl-4,5-dihydrooxazole derivatives as potent fungistatic and fungicidal reagents” (Eur J Med Chem, 2022)
In brackets after ≈: the same amount, converted by molar mass.

Experiments:
Assay type in all cases: functional
Candida albicans [1] = assay: Antifungal activity against Candida albicans ATCC SC5314 assessed as fungal growth inhibition by NCCLS protocol based method
Candida albicans [2] = assay: Antifungal activity against Candida albicans CPCC400616 assessed as fungal growth inhibition by NCCLS protocol based method
Candida tropicalis = assay: Antifungal activity against Candida tropicalis CGMCC 2.3739 assessed as fungal growth inhibition by NCCLS protocol based method
Cryptococcus neoformans = assay: Antifungal activity against Cryptococcus neoformans CGMCC 2.3161 assessed as fungal growth inhibition by NCCLS protocol based method
Candida parapsilosis = assay: Antifungal activity against Candida parapsilosis GIM2.190 assessed as fungal growth inhibition by NCCLS protocol based method; conditions: Lodderomyces parapsilosis
Nakaseomyces glabratus = assay: Antifungal activity against Candida glabrata clinical isolate assessed as fungal growth inhibition by NCCLS protocol based method
Pichia kudriavzevii = assay: Antifungal activity against Candida krusei GIM2.1 assessed as fungal growth inhibition by NCCLS protocol based method
Aspergillus fumigatus = assay: Antifungal activity against Aspergillus fumigatus CGMCC3.7795 assessed as fungal growth inhibition by NCCLS protocol based method
Candida albicans [3] = assay: Antifungal activity against FLC-resistant Candida albicans CaR assessed as fungal growth inhibition by NCCLS protocol based method
Candida albicans [4] = assay: Antifungal activity against FLC-resistant Candida albicans 901 assessed as fungal growth inhibition by NCCLS protocol based method
Candida albicans [5] = assay: Antifungal activity against FLC-resistant Candida albicans 904 assessed as fungal growth inhibition by NCCLS protocol based method
Candida albicans [6] = assay: Antifungal activity against FLC-resistant Candida albicans 632 assessed as fungal growth inhibition by NCCLS protocol based method
Candida albicans [7] = assay: Antifungal activity against FLC-resistant Candida albicans 100 assessed as fungal growth inhibition by NCCLS protocol based method
Candida albicans [8] = assay: Antifungal activity against FLC-resistant Candida albicans 103 assessed as fungal growth inhibition by NCCLS protocol based method
Candida albicans [9] = assay: Antifungal activity against FLC-resistant Candida albicans 311 assessed as fungal growth inhibition by NCCLS protocol based method

Row | Compound | MIC (Candida albicans [1]) [µg/mL] | MIC (Candida albicans [2]) [µg/mL] | MIC (Candida tropicalis) [µg/mL] | MIC (Cryptococcus neoformans) [µg/mL] | MIC (Candida parapsilosis) [µg/mL] | MIC (Nakaseomyces glabratus) [µg/mL] | MIC (Pichia kudriavzevii) [µg/mL] | MIC (Aspergillus fumigatus) [µg/mL] | MIC (Candida albicans [3]) [µg/mL] | MIC (Candida albicans [4]) [µg/mL] | MIC (Candida albicans [5]) [µg/mL] | MIC (Candida albicans [6]) [µg/mL] | MIC (Candida albicans [7]) [µg/mL] | MIC (Candida albicans [8]) [µg/mL] | MIC (Candida albicans [9]) [µg/mL]
1 | CCc1ccccc1-c1ccc(C2=NC(Cn3ccnc3)(c3ccc(F)cc3)CO2)s1 (stereo unspecified) | > 64 | > 64 | > 64 | > 64 | > 64 | > 64 | > 64 | > 64 |  |  |  |  |  |  | 
2 | CCc1ccc(-c2ccc(C3=NC(Cn4ccnc4)(c4ccc(F)cc4)CO3)s2)cc1 (stereo unspecified) | 4 (≈ 9.27 µM) | 4 (≈ 9.27 µM) | > 64 | > 64 | 16 (≈ 37.1 µM) | 64 (≈ 148 µM) | > 64 | 4 (≈ 9.27 µM) |  |  |  |  |  |  | 
3 | FC(F)(F)c1ccc(C2(Cn3ccnc3)COC(c3ccc(-c4ccccc4)s3)=N2)cc1 (stereo unspecified) | 0.125 (≈ 0.276 µM) | 0.5 (≈ 1.1 µM) | > 64 | > 64 | > 64 | > 64 | > 64 | > 64 |  |  |  |  |  |  | 
4 | N#Cc1cccc(-c2ccc(C3=NC(Cn4ccnc4)(c4ccc(F)cc4)CO3)s2)c1 (stereo unspecified) | 0.5 (≈ 1.17 µM) | 0.5 (≈ 1.17 µM) | 1 (≈ 2.33 µM) | 2 (≈ 4.67 µM) | > 64 | > 64 | > 64 | 16 (≈ 37.3 µM) |  |  |  |  |  |  | 
5 | CCOc1ccc(-c2ccc(C3=NC(Cn4ccnc4)(c4ccc(F)cc4)CO3)s2)cc1 (stereo unspecified) | 0.5 (≈ 1.12 µM) | 2 (≈ 4.47 µM) | 1 (≈ 2.23 µM) | > 64 | > 64 | 32 (≈ 71.5 µM) | > 64 | 8 (≈ 17.9 µM) |  |  |  |  |  |  | 
6 | COc1cccc(C2(Cn3ccnc3)COC(c3ccc(-c4ccccc4)s3)=N2)c1 (stereo unspecified) | 0.125 (≈ 0.301 µM) | 1 (≈ 2.41 µM) | 1 (≈ 2.41 µM) | > 64 | > 64 | > 64 | > 64 | > 64 |  |  |  |  |  |  | 
7 | Fc1ccc(C2(Cn3ccnc3)COC(c3ccc(-c4cccc(OC(F)(F)F)c4)s3)=N2)cc1 (stereo unspecified) | > 64 | > 64 | > 64 | > 64 | > 64 | > 64 | > 64 | > 64 |  |  |  |  |  |  | 
8 | Fc1ccc(C2(Cn3ccnc3)COC(c3ccc(-c4ccc(OCC(F)(F)F)cc4)s3)=N2)cc1 (stereo unspecified) | > 64 | > 64 | > 64 | > 64 | > 64 | > 64 | > 64 | > 64 |  |  |  |  |  |  | 
9 | Fc1ccc(C2(Cn3ccnc3)COC(c3ccc(-c4ccccc4Cl)s3)=N2)cc1 (stereo unspecified) | 0.5 (≈ 1.14 µM) | 0.25 (≈ 0.571 µM) | > 64 | > 64 | > 64 | > 64 | > 64 | 16 (≈ 36.5 µM) |  |  |  |  |  |  | 
10 | Fc1ccc(C2(Cn3ccnc3)COC(c3ccc(-c4ccc(C(F)(F)F)cc4)s3)=N2)cc1 (stereo unspecified) | > 64 | > 64 | > 64 | > 64 | > 64 | > 64 | > 64 | > 64 |  |  |  |  |  |  | 
11 | CC(C)c1ccccc1-c1ccc(C2=NC(Cn3ccnc3)(c3ccc(F)cc3)CO2)s1 (stereo unspecified) | > 64 | > 64 | > 64 | > 64 | > 64 | > 64 | > 64 | > 64 |  |  |  |  |  |  | 
12 | Cc1ccc(C2(Cn3ccnc3)COC(c3ccc(-c4ccccc4)s3)=N2)cc1 (stereo unspecified) | 0.125 (≈ 0.313 µM) | 0.125 (≈ 0.313 µM) | 8 (≈ 20 µM) | 0.25 (≈ 0.626 µM) | 1 (≈ 2.5 µM) | > 64 | > 64 | 16 (≈ 40 µM) | 2 (≈ 5.01 µM) | 2 (≈ 5.01 µM) | 4 (≈ 10 µM) | 16 (≈ 40 µM) | 0.5 (≈ 1.25 µM) | 4 (≈ 10 µM) | 8 (≈ 20 µM)
13 | N#Cc1ccc(-c2ccc(C3=NC(Cn4ccnc4)(c4ccc(F)cc4)CO3)s2)cc1 (stereo unspecified) | 0.125 (≈ 0.292 µM) | 1 (≈ 2.33 µM) | 16 (≈ 37.3 µM) | > 64 | > 64 | > 64 | > 64 | 16 (≈ 37.3 µM) |  |  |  |  |  |  | 
